Test results from the supplement of paper PMC10307832.

Experiments:
Assay in all cases: relative viability (nuclei count vs DMSO), 5 days (fraction); higher = more cells survive
IPA-3 + Alpelisib = compound: C1=CC=C2C(=C1)C=CC(=C2SSC3=C(C=CC4=CC=CC=C43)O)O [IPA-3] + Cc1nc(NC(=O)N2CCC[C@H]2C(N)=O)sc1-c1ccnc(C(C)(C)C(F)(F)F)c1 [Alpelisib] (partner 2 µM)
Method in brief: (§1)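 After 5 days of treatment, lung cancer cells in 1536-well plates were fixed and stained in a single step (final 0.05% Triton X-100, 1% formaldehyde, 1 ug/ml Hoechst) and their nuclei counted on 4× images. Treatment had been applied by pin tool the day after seeding as one drug alone or as a fixed anchor-drug dose with five library-drug doses (not always all listed) in √10 steps. Relative viability is the nuclei count of treated wells divided by that of vehicle wells, and values are medians of duplicate plates.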

IPA-3 + Olaparib = compound: C1=CC=C2C(=C1)C=CC(=C2SSC3=C(C=CC4=CC=CC=C43)O)O [IPA-3] + O=C(c1cc(Cc2n[nH]c(=O)c3ccccc23)ccc1F)N1CCN(C(=O)C2CC2)CC1 [Olaparib] (partner 8 µM)
Method in brief: as §1

Doramapimod + Trametinib = compound: Cc1ccc(-n2nc(C(C)(C)C)cc2NC(=O)Nc2ccc(OCCN3CCOCC3)c3ccccc23)cc1 [Doramapimod] + CC(=O)Nc1cccc(-n2c(=O)n(C3CC3)c(=O)c3c(Nc4ccc(I)cc4F)n(C)c(=O)c(C)c32)c1 [Trametinib] (partner 0.02 µM)
Method in brief: as §1

Doramapimod + Lapatinib = compound: Cc1ccc(-n2nc(C(C)(C)C)cc2NC(=O)Nc2ccc(OCCN3CCOCC3)c3ccccc23)cc1 [Doramapimod] + CS(=O)(=O)CCNCc1ccc(-c2ccc3ncnc(Nc4ccc(OCc5cccc(F)c5)c(Cl)c4)c3c2)o1 [Lapatinib] (partner 2 µM)
Method in brief: as §1

| Cell Line | relative viability (IPA-3 + Alpelisib; first compound 0.2 µM) | relative viability (IPA-3 + Alpelisib; first compound 0.6325 µM) | relative viability (IPA-3 + Alpelisib; first compound 2 µM) | relative viability (IPA-3 + Alpelisib; first compound 6.325 µM) | relative viability (IPA-3 + Alpelisib; first compound 20 µM) | relative viability (IPA-3 + Olaparib; first compound 0.2 µM) | relative viability (IPA-3 + Olaparib; first compound 0.6325 µM) | relative viability (IPA-3 + Olaparib; first compound 2 µM) | relative viability (IPA-3 + Olaparib; first compound 6.325 µM) | relative viability (IPA-3 + Olaparib; first compound 20 µM) | relative viability (Doramapimod + Trametinib; first compound 0.02 µM) | relative viability (Doramapimod + Trametinib; first compound 0.06325 µM) | relative viability (Doramapimod + Trametinib; first compound 0.2 µM) | relative viability (Doramapimod + Trametinib; first compound 0.6325 µM) | relative viability (Doramapimod + Trametinib; first compound 2 µM) | relative viability (Doramapimod + Lapatinib; first compound 0.02 µM) | relative viability (Doramapimod + Lapatinib; first compound 0.06325 µM) | relative viability (Doramapimod + Lapatinib; first compound 0.2 µM) | relative viability (Doramapimod + Lapatinib; first compound 0.6325 µM) | relative viability (Doramapimod + Lapatinib; first compound 2 µM) |
| --- | --- | --- | --- | --- | --- | --- | --- | --- | --- | --- | --- | --- | --- | --- | --- | --- | --- | --- | --- | --- |
| LXF-289 | 1.08 | 0.978 | 1.03 | 1.02 | 1.13 | 1.22 | 1 | 1.09 | 1.07 | 1.23 | 0.684 | 0.647 | 0.676 | 0.665 | 0.657 | 0.851 | 0.924 | 0.912 | 0.871 | 0.834 |
| NCI-H23 | 0.694 | 0.577 | 0.73 | 0.645 | 0.805 | 0.196 | 0.277 | 0.379 | 0.323 | 0.187 | 0.287 | 0.346 | 0.402 | 0.415 | 0.376 | 0.962 | 0.998 | 1.11 | 0.761 | 1.12 |
| NCI-H322M | 0.867 | 0.823 | 0.759 | 0.0386 | 0.901 | 0.91 | 0.786 | 0.817 | 0.776 | 0.746 | 0.429 | 0.519 | 0.541 | 0.524 | 0.498 | 0.59 | 0.601 | 0.644 | 0.798 | 0.605 |
| NCI-H358 | 1.01 | 0.843 | 0.791 | 0.803 | 1.19 | 0.649 | 0.514 | 0.879 | 0.505 | 0.564 | 0.163 | 0.137 | 0.124 | 0.15 | 0.156 | 0.508 | 0.426 | 0.472 | 0.571 | 0.443 |
| NCI-H460 | 0.711 | 0.409 | 0.46 | 0.479 | 0.426 | 0.575 | 0.393 | 0.454 | 0.418 | 0.447 | 0.163 | 0.143 | 0.135 | 0.159 | 0.105 | 0.889 | 0.962 | 0.858 | 0.946 | 0.934 |
| NCI-H520 | 1.08 | 0.949 | 0.784 | 0.847 | 0.753 | 0.322 | 0.278 |  | 0.367 | 0.298 | 0.648 | 0.59 | 0.72 | 0.723 | 0.536 | 0.828 | 0.865 | 0.945 | 0.807 | 0.629 |
| NCI-H596 | 0.527 | 0.562 | 0.475 | 0.523 | 0.558 | 0.638 | 0.708 | 0.773 | 0.768 | 0.748 | 0.802 | 0.845 | 0.915 | 0.852 | 0.806 | 1.03 | 1.15 | 1.14 | 1.33 | 1.07 |
| NCI-H647 | 1.49 | 1.06 | 1.18 | 0.537 | 0.11 | 0.725 | 0.496 | 0.59 | 0.196 | 0.0974 | 0.468 | 0.445 | 0.481 | 0.6 | 0.523 | 0.789 | 1.09 | 1.21 | 1.06 | 0.826 |
| NCI-H650 | 1.43 | 1.11 | 1.18 | 1.04 | 1.55 | 0.473 | 0.391 | 0.387 | 0.379 | 0.381 | 0.963 | 0.977 | 0.988 | 1.05 | 0.978 | 1.03 | 0.938 | 1.43 | 0.921 | 0.844 |
| NCI-H661 | 0.693 | 0.682 | 0.801 | 0.765 | 1.07 | 0.784 | 0.705 | 0.786 | 0.716 | 0.738 | 0.642 | 0.58 | 0.598 | 0.732 | 0.512 | 0.477 | 0.438 | 0.48 | 0.588 | 0.413 |
| NCI-H727 | 0.629 | 0.559 | 0.593 | 0.676 | 0.621 | 0.659 | 0.946 | 0.638 | 0.656 | 0.698 | 0.389 | 0.395 | 0.406 | 0.4 | 0.32 | 0.969 | 0.731 | 0.815 | 0.778 | 0.933 |
| NCI-H838 | 1.25 | 0.948 | 1.05 | 1.06 | 1.16 | 0.904 | 0.723 | 0.776 | 0.667 | 0.735 | 0.493 | 0.549 | 0.506 | 0.56 | 0.411 | 0.982 | 0.996 | 1.19 | 1.27 | 0.843 |
| NCI-H1355 | 0.918 | 0.782 | 0.809 | 0.797 | 0.802 | 0.764 | 0.779 | 0.836 | 0.675 | 0.709 | 0.456 | 0.393 | 0.376 | 0.43 | 0.408 | 0.972 | 0.992 | 0.964 | 0.95 | 0.952 |
| NCI-H1395 | 1.06 | 1.29 | 1.04 | 1.26 | 1.01 | 0.507 | 0.456 | 0.465 | 0.474 | 0.457 | 0.999 | 0.967 | 1.05 | 1.08 | 0.946 | 1.38 | 1.13 | 1.05 | 0.913 | 0.818 |
| NCI-H1437 | 1.32 | 0.938 | 1.11 | 0.974 | 1.27 | 0.629 | 0.597 | 0.639 | 0.608 | 0.565 | 0.477 | 0.486 | 0.423 | 0.423 | 0.486 | 0.805 | 0.905 | 0.837 | 0.898 | 0.723 |
| NCI-H1651 | 1.01 |  | 0.912 | 0.904 | 1.15 | 0.198 | 0.187 | 0.189 | 0.179 | 0.178 | 0.811 | 0.865 | 0.823 | 0.792 | 0.825 | 0.878 | 0.791 | 0.864 | 0.99 | 0.781 |
